Earlier results in article PMC3159814 (Bioorganic & medicinal chemistry letters, 2011).

Test system: GnRH receptor

GnRH receptor binding affinity: 36.1 nM
Substance: 1,4,7,10-tetraazacyclododecane-1,4,7,10-tetraacetic acid (DOTA)-Ahx-(D-Lys^6-GnRH1) [DOTA-Ahx-(D-Lys^6-GnRH1)]
